The supplement of paper PMC10307832

What was measured:
Assay in all cases: relative viability (nuclei count vs DMSO), 5 days (fraction); higher = more cells survive
[1] = compound: CCc1cnn2c(NCc3ccc[n+]([O-])c3)cc(N3CCCC[C@H]3CCO)nc12 [Dinaciclib] + CC(C)C[C@H](NC(=O)[C@H](Cc1ccccc1)NC(=O)c1cnccn1)B(O)O [Bortezomib] (partner 0.002 µM)
Procedure, shortened: (§1)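 For relative viability, nuclei counts in treated wells were divided by those in vehicle wells. Lung cancer cell lines had been pin-tool dosed in 1536-well plates the day after seeding and cultured for 5 days, then fixed and stained in one step (final 0.05% Triton X-100, 1% formaldehyde, 1 ug/ml Hoechst) and imaged at 4×. Doses were one drug alone or a fixed anchor-drug dose plus five library-drug doses (not always all listed) in √10 steps, and values are duplicate-plate medians.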

[2] = compound: CCc1cnn2c(NCc3ccc[n+]([O-])c3)cc(N3CCCC[C@H]3CCO)nc12 [Dinaciclib] + C[C@]1(O)C[C@@H](c2nc(-c3ccc4ccc(-c5ccccc5)nc4c3)c3c(N)nccn32)C1 [Linsitinib] (partner 1 µM)
Procedure, shortened: as §1

[3] = compound: CCc1cnn2c(NCc3ccc[n+]([O-])c3)cc(N3CCCC[C@H]3CCO)nc12 [Dinaciclib] + Cc1cc(Nc2cc(N3CCN(C)CC3)nc(Sc3ccc(NC(=O)C4CC4)cc3)n2)n[nH]1 [Tozasertib] (partner 0.1 µM)
Procedure, shortened: as §1

[4] = compound: CCc1cnn2c(NCc3ccc[n+]([O-])c3)cc(N3CCCC[C@H]3CCO)nc12 [Dinaciclib] + N=C(N)NC(=N)NCCc1ccccc1 [Phenformin] (partner 250 µM)
Procedure, shortened: as §1

[5] = compound: CCc1cnn2c(NCc3ccc[n+]([O-])c3)cc(N3CCCC[C@H]3CCO)nc12 [Dinaciclib] + Nc1nc2[nH]cc(CCc3ccc(C(=O)N[C@@H](CCC(=O)O)C(=O)O)cc3)c2c(=O)[nH]1 [Pemetrexed] (partner 0.2 µM)
Procedure, shortened: as §1

| Cell Line | relative viability ([1]; first compound 0.009487 µM) | relative viability ([1]; first compound 0.03 µM) | relative viability ([1]; first compound 0.09487 µM) | relative viability ([1]; first compound 0.3 µM) | relative viability ([2]; first compound 0.009487 µM) | relative viability ([2]; first compound 0.03 µM) | relative viability ([2]; first compound 0.09487 µM) | relative viability ([2]; first compound 0.3 µM) | relative viability ([3]; first compound 0.009487 µM) | relative viability ([3]; first compound 0.03 µM) | relative viability ([3]; first compound 0.09487 µM) | relative viability ([3]; first compound 0.3 µM) | relative viability ([4]; first compound 0.009487 µM) | relative viability ([4]; first compound 0.03 µM) | relative viability ([4]; first compound 0.09487 µM) | relative viability ([4]; first compound 0.3 µM) | relative viability ([5]; first compound 0.009487 µM) | relative viability ([5]; first compound 0.03 µM) | relative viability ([5]; first compound 0.09487 µM) | relative viability ([5]; first compound 0.3 µM) |
| --- | --- | --- | --- | --- | --- | --- | --- | --- | --- | --- | --- | --- | --- | --- | --- | --- | --- | --- | --- | --- |
| NCI-H1355 | 1.16 | 1.1 | 0.223 | 0.152 | 0.899 | 0.635 | 0.151 | 0.132 | 0.677 | 0.292 | 0.161 | 0.181 | 0.502 | 0.319 | 0.183 | 0.184 | 1.04 | 0.976 | 0.449 | 0.116 |
| NCI-H2023 | 1 | 0.066 | 0.0634 | 0.0575 | 0.442 | 0.0999 | 0.0724 | 0.0763 | 0.446 | 0.0768 | 0.0628 | 0.0577 | 0.384 | 0.0797 | 0.0696 | 0.0629 | 0.165 | 0.0899 | 0.0697 | 0.0581 |
| NCI-H2087 | 0.998 | 0.135 | 0.142 | 0.123 | 0.69 | 0.164 | 0.155 | 0.133 | 0.222 | 0.0979 | 0.0821 | 0.0868 | 0.588 | 0.112 | 0.118 | 0.107 | 0.687 | 0.109 | 0.106 | 0.101 |
| NCI-H838 | 0.231 | 0.104 | 0.0725 | 0.127 | 0.547 | 0.137 | 0.113 | 0.112 | 0.292 | 0.164 | 0.0965 | 0.0959 | 0.247 | 0.117 | 0.0955 | 0.104 | 0.262 | 0.13 | 0.12 | 0.0879 |
| LC-2-ad | 1.05 | 0.0825 | 0.0622 | 0.0691 | 0.745 | 0.0866 | 0.0684 | 0.0797 | 0.363 | 0.242 | 0.19 | 0.219 | 0.334 | 0.219 | 0.181 | 0.18 | 0.28 | 0.158 | 0.14 | 0.131 |
| HCC-78 | 0.61 | 0.169 | 0.133 | 0.122 | 0.556 | 0.348 | 0.116 | 0.14 | 0.345 | 0.282 | 0.144 | 0.138 | 0.744 | 0.332 | 0.17 | 0.165 | 0.895 | 0.91 | 0.858 | 0.927 |
| LOU-NH91 | 0.4 | 0.345 | 0.287 | 0.281 | 0.94 | 0.467 | 0.236 | 0.245 | 0.656 | 0.305 | 0.178 | 0.174 | 0.645 | 0.249 | 0.208 | 0.151 | 0.443 | 0.276 | 0.256 | 0.234 |
| NCI-H1734 | 0.644 | 0.148 | 0.121 | 0.116 | 0.813 | 0.328 | 0.158 | 0.132 | 0.208 | 0.13 | 0.133 | 0.111 | 0.318 | 0.14 | 0.113 | 0.115 | 0.417 | 0.147 | 0.149 | 0.136 |
| NCI-H520 | 0.23 | 0.105 | 0.103 | 0.14 | 0.615 | 0.128 | 0.129 | 0.177 | 0.473 | 0.201 | 0.181 | 0.208 | 0.476 | 0.203 | 0.167 | 0.166 | 0.483 | 0.123 | 0.139 | 0.127 |
| UMC-11 | 0.196 | 0.107 | 0.108 | 0.131 | 0.282 | 0.167 | 0.169 | 0.168 | 0.2 | 0.215 | 0.202 | 0.173 | 0.214 | 0.197 | 0.192 | 0.185 | 0.411 | 0.18 | 0.189 | 0.146 |
| NCI-H596 | 1.22 | 0.563 | 0.263 | 0.239 | 0.847 | 0.468 | 0.169 | 0.193 | 0.853 | 0.456 | 0.176 | 0.164 | 0.875 | 0.692 | 0.438 | 0.216 | 0.404 | 0.396 | 0.24 | 0.225 |
| NCI-H1755 | 0.889 | 0.884 | 0.171 | 0.17 | 0.991 | 0.429 | 0.166 | 0.171 | 0.53 | 0.401 | 0.2 | 0.234 | 0.545 | 0.405 | 0.224 | 0.218 | 0.397 | 0.272 | 0.204 | 0.261 |
| SK-LU-1 | 1.09 | 0.17 | 0.188 | 0.193 | 0.859 | 0.218 | 0.165 | 0.221 | 0.329 | 0.132 | 0.131 | 0.119 | 0.394 | 0.11 | 0.133 | 0.129 | 0.97 | 0.226 | 0.229 | 0.185 |
| NCI-H647 | 0.208 | 0.0668 | 0.0726 | 0.0623 | 0.674 | 0.0709 | 0.0658 | 0.0602 | 0.21 | 0.0983 | 0.0486 | 0.0487 | 0.302 | 0.0795 | 0.059 | 0.0723 | 0.149 | 0.0819 | 0.0645 | 0.0608 |
| SW 1573 | 0.777 | 0.104 | 0.0824 | 0.0954 | 0.679 | 0.109 | 0.0988 | 0.0866 | 0.141 | 0.0738 | 0.0542 | 0.0806 | 0.303 | 0.0685 | 0.077 | 0.0659 | 0.345 | 0.0723 | 0.07 | 0.0635 |
| HCC-15 | 0.628 | 0.106 | 0.0945 | 0.0993 | 0.76 | 0.171 | 0.113 | 0.101 | 0.407 | 0.0586 | 0.0549 | 0.0646 | 0.352 | 0.115 | 0.107 | 0.103 | 0.217 | 0.122 | 0.128 | 0.125 |
| NCI-H2126 | 1.06 | 0.973 | 0.524 | 0.208 | 0.692 | 0.555 | 0.197 | 0.207 | 0.799 | 0.218 | 0.222 | 0.19 | 0.443 | 0.258 | 0.221 | 0.21 | 0.695 | 0.495 | 0.198 | 0.192 |
| NCI-H2085 | 1.06 | 0.446 | 0.26 | 0.233 | 0.94 | 0.188 | 0.176 | 0.202 | 0.802 | 0.373 | 0.3 | 0.308 | 0.72 | 0.304 | 0.232 | 0.202 | 0.916 | 0.279 | 0.211 | 0.217 |
| BEN | 0.817 | 0.497 | 0.159 | 0.247 | 1.01 | 0.68 | 0.216 | 0.21 | 0.568 | 0.638 | 0.268 | 0.348 | 0.235 | 0.217 | 0.174 | 0.209 | 1.07 | 0.501 | 0.23 | 0.274 |
| NCI-H650 | 0.295 | 0.132 | 0.129 | 0.123 | 0.481 | 0.161 | 0.139 | 0.124 | 0.493 | 0.183 | 0.154 | 0.153 | 0.407 | 0.201 | 0.159 | 0.154 | 0.877 | 0.305 | 0.115 | 0.139 |
| LCLC-103H | 1.04 | 0.998 | 0.451 | 0.108 | 1.13 | 0.934 | 0.18 | 0.172 | 0.487 | 0.315 | 0.0924 | 0.0865 | 0.292 | 0.327 | 0.11 | 0.0875 | 0.465 | 0.566 | 0.223 | 0.217 |
| PC-14 | 0.807 | 0.109 | 0.0534 | 0.0475 | 0.873 | 0.244 | 0.0973 | 0.0775 | 0.454 | 0.0566 | 0.0448 | 0.038 | 0.279 | 0.0631 | 0.0459 | 0.0379 | 0.111 | 0.0682 | 0.0557 | 0.0571 |
| NCI-H2228 | 0.934 | 0.0992 | 0.119 | 0.102 | 0.715 | 0.466 | 0.109 | 0.13 | 0.333 | 0.137 | 0.0995 | 0.0912 | 0.256 | 0.11 | 0.0988 | 0.103 | 0.309 | 0.152 | 0.0897 | 0.0862 |
| COR-L23 | 0.646 | 0.0952 | 0.0792 | 0.0558 | 0.736 | 0.0901 | 0.0662 | 0.0681 | 0.214 | 0.0848 | 0.0671 | 0.0704 | 0.296 | 0.0764 | 0.0763 | 0.069 | 0.184 | 0.21 | 0.112 | 0.093 |
| NCI-H1915 | 0.81 | 0.23 | 0.112 | 0.105 | 1.06 | 0.279 | 0.136 | 0.127 | 0.303 | 0.149 | 0.13 | 0.115 | 0.295 | 0.149 | 0.13 | 0.133 | 0.471 | 0.439 | 0.11 | 0.0872 |
